Source: ChEMBL document CHEMBL4831477, “Structure-Enabled Discovery of Novel Macrocyclic Inhibitors Targeting Glutaminase 1 Allosteric Binding Site” (J Med Chem, 2021)
pIC50: −log10 of the molar value. ≈ marks a conversion by molar mass, not a printed value. Calls of active or inactive are those of the source. No cut-off for these calls is given here.

How the values were obtained:
[1] = Acute toxicity in BALB/c nude mouse assessed as heart damage at 200 mg/kg, po administered twice daily for 4 weeks by H and E staining based optical microscopic analysis; format: organism-based; details: in vivo, 672 h
[2] = Acute toxicity in BALB/c nude mouse assessed as liver damage at 200 mg/kg, po administered twice daily for 4 weeks by H and E staining based optical microscopic analysis; format: organism-based; details: in vivo, 672 h
HCT-116 [3] = assay: Antiproliferative activity against human HCT116 cells assessed as reduction in cell viability incubated for 72 hrs by MTT assay; format: functional, cell-based; details: HCT-116, 72 h
MDA-MB-436 = assay: Antiproliferative activity against human MDA-MB-436 cells assessed as reduction in cell viability incubated for 72 hrs by MTT assay; format: functional, cell-based; details: MDA-MB-436, 72 h
HCT-116 [4] = assay: Inhibition of clone formation in human HCT-116 cells at 0.1 to 2 microM incubated for 14 days by crystal violet staining based assay; format: functional, cell-based; details: dose 0.1-2 µM, time 14.0 day
HCT-116 [5] = assay: Induction of ROS generation in human HCT-116 cells incubated for 6 hrs by DCFH-DA dye based flow cytometric analysis; format: functional, cell-based; details: dose 50-500 nM
[6] = Intrinsic aqueous solubility of compound at pH 7.4 by LC-MS based shake-flask method; format: physicochemical; details: read-out: Intrinsic_solubility
[7] = Metabolic stability in mouse plasma assessed as compound remaining after 2 hrs by LC-MS/MS analysis; format: ADME, cell-free; details: read-out: Stability
[8] = Metabolic stability in human plasma assessed as compound remaining after 2 hrs by LC-MS/MS analysis; format: ADME, cell-free; details: read-out: Stability
[9] = Metabolic stability in human liver microsomes assessed as half life at 10 uM preincubated for 5 mins followed by NADPH addition by LC-MS/MS analysis; format: ADME, Microsome
[10] = Metabolic stability in human liver microsomes assessed as clearance at 10 uM preincubated for 5 mins followed by NADPH addition by LC-MS/MS analysis; format: ADME, Microsome; details: read-out: CLH
[11] = Metabolic stability in mouse liver microsomes assessed as clearance at 10 uM preincubated for 5 mins followed by NADPH addition by LC-MS/MS analysis; format: ADME, Microsome; details: read-out: CLH
[12] = Half life in Sprague-Dawley rat at 5 mg/kg, iv measured upto 72 hrs by LC-MS/MS analysis; format: ADME, organism-based; details: in vivo
[13] = Half life in Sprague-Dawley rat at 200 mg/kg, po measured upto 72 hrs by LC-MS/MS analysis; format: ADME, organism-based; details: in vivo
[14] = Cmax in Sprague-Dawley rat at 200 mg/kg, po measured upto 72 hrs by LC-MS/MS analysis; format: ADME, organism-based; parameters: route oral, dose 200 mg/kg, time <=72; details: in vivo
[15] = AUC(0 to t) in Sprague-Dawley rat at 5 mg/kg, iv measured upto 72 hrs by LC-MS/MS analysis; format: ADME, organism-based; parameters: route intravenous, dose 5 mg/kg, time <=72; details: in vivo
[16] = AUC(0 to infinity) in Sprague-Dawley rat at 5 mg/kg, iv measured upto 72 hrs by LC-MS/MS analysis; format: ADME, organism-based; parameters: route intravenous, dose 5 mg/kg, time <=72; details: Sprague-Dawley, in vivo
[17] = Clearance in Sprague-Dawley rat at 5 mg/kg, iv measured upto 72 hrs by LC-MS/MS analysis; format: ADME, organism-based; details: Sprague-Dawley, in vivo
[18] = Apparent volume of distribution in Sprague-Dawley rat at 5 mg/kg, iv measured upto 72 hrs by LC-MS/MS analysis; format: ADME, organism-based; details: in vivo, read-out: Vz
HCT-116 [19] = assay: Antineoplastic activity against human HCT-116 cells xenografted in po dosed BALB/c nude mouse administered twice daily measured after 28 days; format: functional, organism-based; details: dose 200.0 mg/kg, time 28.0 day
HCT-116 [20] = assay: Antitumor activity against human HCT-116 cells xenografted in BALB/c nude mouse assessed as tumor growth inhibition at 200 mg/kg, po administered twice daily measured after 28 days; format: functional; details: Mus musculus, HCT-116, po, 672 h, time 28 day, read-out: TGI
[21] = Toxicity in BALB/c nude mouse xenografted with human HCT-116 cells assessed as tolerability at 200 mg/kg, po administered twice daily measured after 28 days; format: organism-based; details: in vivo, 672 h, time 28 day
[22] = Toxicity in BALB/c nude mouse xenografted with human HCT-116 cells assessed as body weight loss at 200 mg/kg, po administered twice daily for 28 days and measured every 3 days; format: organism-based; details: in vivo, 672 h, time 28 day
HCT-116 [23] = assay: Antitumor activity against human HCT-116 cells xenografted in BALB/c nude mouse assessed as tumor destruction at 200 mg/kg, po administered twice daily measured after 28 days by H and E staining based optical microscopic method; format: functional, organism-based; details: time 28.0 day
[24] = fCmax in BALB/c nude mouse plasma xenografted with human HCT-116 cells at 200 mg/kg, po administered twice daily for 28 days; format: ADME, organism-based; details: in vivo, 672 h, time 28 day
[25] = Free plasma protein in mouse; format: ADME, cell-free
[26] = Acute toxicity in BALB/c nude mouse assessed as spleen damage at 200 mg/kg, po administered twice daily for 4 weeks by H and E staining based optical microscopic analysis; format: organism-based; details: in vivo, 672 h
[27] = biological target: T1, Glutaminase kidney isoform, mitochondrial (Mus musculus) (UniProt D3Z7P3); assay: In vivo inhibition of GLS1 in BALB/c mouse xenografted with human HCT-116 cells assessed as reduction in glutamate level at 200 mg/kg, po; format: functional, organism-based
T1 sequence (whole entry): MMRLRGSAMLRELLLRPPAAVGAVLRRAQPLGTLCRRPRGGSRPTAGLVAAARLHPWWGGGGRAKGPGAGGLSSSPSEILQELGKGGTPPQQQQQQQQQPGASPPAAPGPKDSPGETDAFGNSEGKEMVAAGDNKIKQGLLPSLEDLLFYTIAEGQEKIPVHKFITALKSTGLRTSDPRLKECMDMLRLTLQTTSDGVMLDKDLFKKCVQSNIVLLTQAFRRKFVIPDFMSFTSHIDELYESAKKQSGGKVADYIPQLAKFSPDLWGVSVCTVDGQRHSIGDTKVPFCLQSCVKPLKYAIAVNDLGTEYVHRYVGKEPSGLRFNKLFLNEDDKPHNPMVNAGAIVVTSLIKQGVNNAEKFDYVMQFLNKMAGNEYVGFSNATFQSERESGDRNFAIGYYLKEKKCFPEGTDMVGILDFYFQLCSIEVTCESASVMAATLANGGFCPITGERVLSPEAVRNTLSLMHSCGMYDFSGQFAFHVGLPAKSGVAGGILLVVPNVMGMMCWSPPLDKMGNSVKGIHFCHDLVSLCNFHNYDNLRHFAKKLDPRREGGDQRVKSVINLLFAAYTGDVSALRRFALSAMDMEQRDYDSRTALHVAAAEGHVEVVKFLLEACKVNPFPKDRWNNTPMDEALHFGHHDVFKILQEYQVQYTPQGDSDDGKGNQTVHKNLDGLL

[28] = biological target: T1, Glutaminase kidney isoform, mitochondrial (Mus musculus); assay: In vivo inhibition of GLS1 in BALB/c mouse xenografted with human HCT-116 cells assessed as reduction in glutathione level at 200 mg/kg, po; format: functional, organism-based
[29] = biological target: T1, Glutaminase kidney isoform, mitochondrial (Mus musculus); assay: In vivo inhibition of GLS1 in BALB/c mouse xenografted with human HCT-116 cells assessed as reduction in malate level at 200 mg/kg, po; format: functional, organism-based
[30] = biological target: T1, Glutaminase kidney isoform, mitochondrial (Mus musculus); assay: In vivo inhibition of GLS1 in BALB/c mouse xenografted with human HCT-116 cells assessed as reduction in aspartate level at 200 mg/kg, po; format: functional, organism-based

## O=C1Cc2cccc(c2)OCC/C=C/CCOc2cccc(c2)CC(=O)Nc2nnc(s2)CCCCc2ccc(nn2)N1
[1]
  Activity: Non-Toxic
[2]
  Activity: Non-Toxic
HCT-116 [3]
  pIC50: 7.10
MDA-MB-436
  pIC50: 6.47
HCT-116 [4]
  inhibition: Active
HCT-116 [5]
  Activity: Dose-Dependent Effect
[6]
  solubility thermodynamic: 1.73 µg/mL (≈ 2.89 µM)
[7]
  remaining at 2 h: 89%
[8]
  remaining at 2 h: 92%
[9]
  half-life at 10 µM: 2.72 h
[10]
  microsomal CLint at 10 µM: 3.2 µL/min/mg
[11]
  microsomal CLint at 10 µM: 7.6 µL/min/mg
[12]
  half-life: 6.3 h
[13]
  half-life: 5.7 h
[14]
  Cmax: 1030 ng/mL
[15]
  AUC(0-t) at 72 h: 1630 ng·h/mL
[16]
  AUC(0-inf): 1670 ng·h/mL
[17]
  clearance: 53.3 mL/min/kg
[18]
  Vd: 19.7 L/kg
HCT-116 [19]
  Activity: Dose-Dependent Effect
HCT-116 [20]
  inhibition in vivo at 200 mg/kg: 39%
[21]
  Activity: Non-Toxic
[22]
  Activity: Non-Toxic
HCT-116 [23]
  Activity: Active
[24]
  fCmax: 0.21 µM
[25]
  fraction unbound: 0.129
[26]
  Activity: Non-Toxic
[27]
  inhibition: Active
[28]
  inhibition: Active
[29]
  inhibition: Active
[30]
  inhibition: Active
